Consider 42 substances from patent US11957716B2 (Immatics Biotechnologies GmbH, priority 2021, dated 2024).

The test system of experiment [1] is HLA-A*01:01, HLA-A*02:01, HLA-A*03:01, HLA-A*24:02, HLA-B*07:02, HLA-B*08:01 and HLA-B*44:02. Briefly: HLA alleles the peptides bind to (Table 7). It counts as binding, human. As to conditions: allotype from the group HLA-A*01:01, HLA-A*02:01, HLA-A*03:01, HLA-A*24:02, HLA-B*07:02, HLA-B*08:01, HLA-B*44:02. An excerpt: However, due to similarities in binding pattern such as the relevant anchoring positions some peptides bind to more than one allele, such an overlap is most likely, but not limited to, HLA-A*01 binding peptides also binding to HLA-B*15, HLA-A*03 binding peptides also binding to HLA-A*11, HLA-B*07 binding peptides also binding to HLA-B*35 and HLA-B*51.

The next experiment concerns the target HLA-A*03:01 (Homo sapiens, UniProt P04439). The experiment can be described thus: MHC binding assay, UV-ligand exchange ELISA. The settings on record: peptide exchange yield, binding to HLA-A*03:01. The text has this:
Candidate peptides for T cell based therapies according to the present invention were further tested for their MHC binding capacity (affinity). The individual peptide-MHC complexes were produced by UV-ligand exchange, where a UV-sensitive peptide is cleaved upon UV-irradiation and exchanged with the peptide of interest as analyzed. Only peptide candidates that can effectively bind and stabilize the peptide-receptive MHC molecules prevent dissociation of the MHC complexes. To determine the yield of the exchange reaction, an ELISA was performed based on the detection of the light chain (β2m) of stabilized MHC complexes. The assay was performed as generally described in Rodenko et al. (Rodenko et al., 2006).
96 well MAXISorp plates (NUNC) were coated over night with 2 μg/ml streptavidin in PBS at room temperature, washed 4× and blocked for 1 h at 37° C. in 2% BSA containing blocking buffer. Refolded HLA-A*02:01/MLA-001 monomers served as standards, covering the range of 15-500 ng/ml. Peptide-MHC monomers of the UV-exchange reaction were diluted 100-fold in blocking buffer. Samples were incubated for 1 h at 37° C., washed four times, incubated with 2 μg/ml HRP conjugated anti-82m for 1 h at 37° C., washed again and detected with TMB solution that is stopped with […]. Absorption was measured at 450 nm. Candidate peptides that show a high exchange yield (preferably higher than 50%, most preferred higher than 75%) are generally preferred for a generation and production of antibodies or fragments thereof, and/or T cell receptors or fragments thereof, as they show sufficient avidity to the MHC molecules and prevent dissociation of the MHC complexes.

Consider “213 (TLLSFKTVLFK; listed as Homo sapiens) [compound 213]”, for which the “Binders (HLA alleles the peptides according to the invention bind to)” value (from here on “Binders”) in experiment [1] is “HLA-A*03:01”. For the same substance, the Peptide exchange entry with HLA-A*03:01 is recorded as “++++ (≥75% = ++++)”.
On the same counts, the results for “179 (MIFSGVFLR; listed as Homo sapiens) [compound 179]” are “HLA-A*03:01” and “++++ (≥75% = ++++)”.
For “21 (MLSAQFILK; listed as Homo sapiens) [compound 21]” the same measures were “HLA-A*03:01” and “++++ (≥75% = ++++)”.
Regarding “8 (VIYNQTLMK; listed as Homo sapiens) [compound 8]”, the “Binders” value in experiment [1] is on record as “HLA-A*03:01”. In addition, the Peptide exchange result in the experiment with HLA-A*03:01 is given as “++++ (≥75% = ++++)”.
On the same counts, the results for “51 (SVFSLVHLFDK; listed as Homo sapiens) [compound 51]” are “HLA-A*03:01” and “++++ (≥75% = ++++)”.
For “70 (LIAGLIFLK; listed as Homo sapiens) [compound 70]” the same measures were “HLA-A*03:01” and “+++ (≥50% = +++)”.
On the same counts, the results for “19 (RILEVVRQPK; listed as Homo sapiens) [compound 19]” are “HLA-A*03:01” and “++++ (≥75% = ++++)”.
Take “24 (LIYIPTNSIYK; listed as Homo sapiens) [compound 24]”: in experiment [1], the “Binders” value is “HLA-A*03:01”. The Peptide exchange result with HLA-A*03:01 is listed as “++++ (≥75% = ++++)”.
For “94 (AVFLGNPSNQK; listed as Homo sapiens) [compound 94]” the same measures were “HLA-A*03:01” and “++++ (≥75% = ++++)”.
On the same counts, the results for “38 (AVVSHFILY; listed as Homo sapiens) [compound 38]” are “HLA-A*03:01” and “+++ (≥50% = +++)”.
“119 (VLHGLLFTL; listed as Homo sapiens) [compound 119]”: the “Binders” value in experiment [1] is “HLA-A*02:01”.
As for “125 (ALAQGANLK; listed as Homo sapiens) [compound 125]”, the “Binders” value in experiment [1] is listed as “HLA-A*03:01”. The Peptide exchange entry with HLA-A*03:01 was “+++ (≥50% = +++)”.
Regarding “204 (VVRASSGLK; listed as Homo sapiens) [compound 204]”, the “Binders” value in experiment [1] is listed as “HLA-A*03:01”. Moreover, in the experiment with HLA-A*03:01, the Peptide exchange entry is “+++ (≥50% = +++)”.
Consider “81 (KLIAGLIFLK; listed as Homo sapiens) [compound 81]”, for which the “Binders” value in experiment [1] is “HLA-A*03:01”. For the same substance, the Peptide exchange entry with HLA-A*03:01 is recorded as “+++ (≥50% = +++)”.
For “205 (SLIPIVPFKS; listed as Homo sapiens) [compound 205]” the same measures were “HLA-A*03:01” and “++ (≥20% = ++)”.
For “198 (MTYQQPFSNR; listed as Homo sapiens) [compound 198]” the same measures were “HLA-A*03:01” and “++++ (≥75% = ++++)”.
For the substance “146 (KVLVDFLLK; listed as Homo sapiens) [compound 146]”, the “Binders” value in experiment [1] is “HLA-A*03:01”. In addition, the Peptide exchange result with HLA-A*03:01 was “+++ (≥50% = +++)”.
As to “127 (TVATQVATSK; listed as Homo sapiens) [compound 127]”, in experiment [1], the “Binders” value is “HLA-A*03:01”. Besides, in the experiment with HLA-A*03:01, the Peptide exchange entry is reported as “+++ (≥50% = +++)”.
As for “159 (ASAIPAGAK; listed as Homo sapiens) [compound 159]”, the “Binders” value in experiment [1] is “HLA-A*03:01”. Moreover, the Peptide exchange entry with HLA-A*03:01 is reported as “+++ (≥50% = +++)”.
For “34 (LLFKGLMWK; listed as Homo sapiens) [compound 34]” the same measures were “HLA-A*03:01” and “++++ (≥75% = ++++)”.
For “29 (GTFIAPVMK; listed as Homo sapiens) [compound 29]” the same measures were “HLA-A*03:01” and “++++ (≥75% = ++++)”.
On the same counts, the results for “90 (LALLGAPPPK; listed as Homo sapiens) [compound 90]” are “HLA-A*03:01” and “++ (≥20% = ++)”.
Take “193 (ILQLITVNR; listed as Homo sapiens) [compound 193]”: the “Binders” value in experiment [1] was “HLA-A*03:01”. Further, in the experiment with HLA-A*03:01, the Peptide exchange result is recorded as “+++ (≥50% = +++)”.
As for “1 (AILAPPAILK; listed as Homo sapiens) [compound 1]”, the “Binders” value in experiment [1] is on record as “HLA-A*03:01”. Also, the Peptide exchange entry with HLA-A*03:01 was “++++ (≥75% = ++++)”.
On the same counts, the results for “107 (SVISVLTTPK; listed as Homo sapiens) [compound 107]” are “HLA-A*03:01” and “++++ (≥75% = ++++)”.
On the same counts, the results for “44 (SLFPYFLNK; listed as Homo sapiens) [compound 44]” are “HLA-A*03:01” and “++++ (≥75% = ++++)”.
Turning to “61 (GLIAFAIFK; listed as Homo sapiens) [compound 61]”, in experiment [1], the “Binders” value was “HLA-A*03:01”.
Regarding “166 (VIFLHQPPK; listed as Homo sapiens) [compound 166]”, the “Binders” value in experiment [1] is recorded as “HLA-A*03:01”. In addition, the Peptide exchange result with HLA-A*03:01 was “++++ (≥75% = ++++)”.
As for “176 (AFLLSLISL; listed as Homo sapiens) [compound 176]”, the “Binders” value in experiment [1] is given as “HLA-A*24:02”.
With “75 (TTAAVYILK; listed as Homo sapiens) [compound 75]”, the “Binders” value in experiment [1] was “HLA-A*03:01”. For the same substance, in the experiment with HLA-A*03:01, the Peptide exchange entry is reported as “+++ (≥50% = +++)”.
For “112 (ETYGTFVLR; listed as Homo sapiens) [compound 112]” the same measures were “HLA-A*03:01” and “+++ (≥50% = +++)”.
Turning to “28 (ATLQAVTLYKK; listed as Homo sapiens) [compound 28]”, the “Binders” value in experiment [1] is listed as “HLA-A*03:01”. For the same substance, in the experiment with HLA-A*03:01, the Peptide exchange entry is “++++ (≥75% = ++++)”.
On the same counts, the results for “35 (SLATAISAK; listed as Homo sapiens) [compound 35]” are “HLA-A*03:01” and “+++ (≥50% = +++)”.
For “20 (ILAPPAILK; listed as Homo sapiens) [compound 20]” the same measures were “HLA-A*03:01” and “++++ (≥75% = ++++)”.
For “144 (IIVPSFYK; listed as Homo sapiens) [compound 144]” the same measures were “HLA-A*03:01” and “+++ (≥50% = +++)”.
In the case of “203 (AILVPQPPK; listed as Homo sapiens) [compound 203]”, the “Binders” value in experiment [1] is reported as “HLA-A*03:01”. Also, the Peptide exchange result in the experiment with HLA-A*03:01 was “+++ (≥50% = +++)”.
For “53 (TTLENLPQK; listed as Homo sapiens) [compound 53]” the same measures were “HLA-A*03:01” and “+++ (≥50% = +++)”.
As to “178 (SLFGGLFTR; listed as Homo sapiens) [compound 178]”, the “Binders” value in experiment [1] is “HLA-A*03:01”. For the same substance, the Peptide exchange entry in the experiment with HLA-A*03:01 is “++++ (≥75% = ++++)”.
As to “197 (HHTQLVFVF; listed as Homo sapiens) [compound 197]”, in experiment [1], the “Binders” value is listed as “HLA-A*24:02”.
The same measure, in the same setting: the entry for “172 (LLYKTLIIL; listed as Homo sapiens) [compound 172]” is “HLA-A*02:01”.
Still for that read-out and setting: for “79 (SLFRLSISF; listed as Homo sapiens) [compound 79]” the value was “HLA-A*24:02”; for “211 (VVTIVMHIYK; listed as Homo sapiens) [compound 211]”, “HLA-A*03:01”.
